Measurements published in patent US20230081426A1, “COMPOUNDS AND METHODS FOR KRAS MODULATION AND INDICATIONS THEREFOR” (Plexxikon Inc., priority 2020, published 2023).

Target: T1, G12D-mutant human KRAS (amino acid residues 1-188) (Homo sapiens, UniProt P01116, G12D)
T1 construct: G12D or G12C-mutant human KRAS (amino acid residues 1-188) with FLAG tag; made in house; host or cells: E. coli
Test: KRAS Binding Disruption Assay (AlphaScreen; biotinylated KRpep-2d analogue or RAF1-RBD), G12D
Settings: KRAS G12D; geometric mean; read-out: KRAS GMean IC50 (uM) MUTATION: G12D
Outline: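 Mutant KRAS (5-20 nM) incubated 1 h at 25° C with test compound and 5-20 nM biotinylated KRpep-2d analogue or RAF1-RBD in 20 mM HEPES pH 7.5, 100 mM NaCl, 5 mM MgCl2, 0.01% Tween-20, 0.01% BSA.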

T1 sequence (P01116 1-188 isoform P01116-2 G12D): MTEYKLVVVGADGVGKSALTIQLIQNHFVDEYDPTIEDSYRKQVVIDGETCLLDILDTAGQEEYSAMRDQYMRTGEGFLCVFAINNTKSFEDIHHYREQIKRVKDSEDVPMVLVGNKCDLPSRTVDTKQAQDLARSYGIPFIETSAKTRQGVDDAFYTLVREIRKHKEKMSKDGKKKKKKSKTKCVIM

`O=C(O)CCc1cccc2[nH]cc(-c3ccc4c(N5C[C@H]6CC[C@@H](C5)N6)nc(OCC56CCCN5CCC6)nc4c3F)c12` [P-0518, 3-(3-(4-((1R,5S)-3,8-diazabicyclo[3.2.1]octan-3-yl)-8-fluoro-2-((tetrahydro-1H-pyrrolizin-7a(5H)-yl)methoxy)quinazolin-7-yl)-1H-indol-4-yl)propanoic acid] and `OCCCc1cccc2[nH]cc(-c3ccc4c(N5C[C@H]6CC[C@@H](C5)N6)nc(OCC56CCCN5CCC6)nc4c3F)c12` [P-0606, 3-(3-(4-((1R,5S)-3,8-diazabicyclo[3.2.1]octan-3-yl)-8-fluoro-2-((tetrahydro-1H-pyrrolizin-7a(5H)-yl)methoxy)quinazolin-7-yl)-1H-indol-4-yl)propan-1-ol] fall in the same range of IC50: 0.0001 to 10 µM for the first, 0.0001 to 10 µM for the second.

`CC(CO)(COc1nc(N2C[C@H]3CC[C@@H](C2)N3)c2ccc(-c3cc(O)cc4ccccc34)c(F)c2n1)c1ccccc1` (stereo partly drawn) [P-0516, 4-(4-((1R,5S)-3,8-diazabicyclo[3.2.1]octan-3-yl)-8-fluoro-2-(3-hydroxy-2-methyl-2-phenylpropoxy)quinazolin-7-yl)naphthalen-2-ol] and `CC(CO)(CO)COc1nc(N2C[C@H]3CC[C@@H](C2)N3)c2ccc(-c3cc(O)cc4ccccc34)c(F)c2n1` [P-0525, 2-(((4-((1R,5S)-3,8-diazabicyclo[3.2.1]octan-3-yl)-8-fluoro-7-(3-hydroxynaphthalen-1-yl)quinazolin-2-yl)oxy)methyl)-2-methylpropane-1,3-diol] fall in the same range of IC50: 0.0001 to 10 µM for the first, 0.0001 to 10 µM for the second.

`Oc1cc(-c2ccc3c(N4C[C@H]5CC[C@@H](C4)N5)nc(OCC4CCCO4)nc3c2)c2ccccc2c1` (stereo partly drawn) [P-0082, 4-(4-((1R,5S)-3,8-diazabicyclo[3.2.1]octan-3-yl)-2-((tetrahydrofuran-2-yl)methoxy)quinazolin-7-yl)naphthalen-2-ol] and `CN1CC[C@@H](COc2nc(N3C[C@H]4CC[C@@H](C3)N4)c3ccc(-c4cc(O)cc5ccccc45)cc3n2)C1` [P-0069, 4-(4-((1R,5S)-3,8-diazabicyclo[3.2.1]octan-3-yl)-2-(((R)-1-methylpyrrolidin-3-yl)methoxy)quinazolin-7-yl)naphthalen-2-ol] fall in the same range of IC50: 0.0001 to 10 µM for the first, 0.0001 to 10 µM for the second.

`CNCC1(CC#N)CCN(c2nc(N3C[C@H]4CC[C@@H](C3)N4)c3ccc(-c4cc(O)cc5ccccc45)c(F)c3n2)C1` (stereo partly drawn) [P-0529, 2-(1-(4-((1R,5S)-3,8-diazabicyclo[3.2.1]octan-3-yl)-8-fluoro-7-(3-hydroxynaphthalen-1-yl)quinazolin-2-yl)-3-((methylamino)methyl)pyrrolidin-3-yl)acetonitrile] and `CNC1CN(c2nc(N3C[C@H]4CC[C@@H](C3)N4)c3ccc(-c4cc(O)cc5ccccc45)c(F)c3n2)C1` [P-0601, 4-(4-((1R,5S)-3,8-diazabicyclo[3.2.1]octan-3-yl)-8-fluoro-2-(3-(methylamino)azetidin-1-yl)quinazolin-7-yl)naphthalen-2-ol] fall in the same range of IC50: 0.0001 to 10 µM for the first, 0.0001 to 10 µM for the second.

`CCN(CC)C1CCN(c2nc(N3C[C@H]4CC[C@@H](C3)N4)c3ccc(-c4cc(O)cc5ccccc45)c(F)c3n2)C1` (stereo partly drawn) [P-0530, 4-(4-((1R,5S)-3,8-diazabicyclo[3.2.1]octan-3-yl)-2-(3-(diethylamino)pyrrolidin-1-yl)-8-fluoroquinazolin-7-yl)naphthalen-2-ol] and `OCCC1CN(c2nc(N3C[C@H]4CC[C@@H](C3)N4)c3ccc(-c4cc(O)cc5ccccc45)c(F)c3n2)C1` [P-0564, 4-(4-((1R,5S)-3,8-diazabicyclo[3.2.1]octan-3-yl)-8-fluoro-2-(3-(2-hydroxyethyl)azetidin-1-yl)quinazolin-7-yl)naphthalen-2-ol] fall in the same range of IC50: 0.0001 to 10 µM for the first, 0.0001 to 10 µM for the second.

`Nc1ccc(Cl)c(-c2c(F)cc3c(N4C[C@H]5CC[C@@H](C4)N5)nc(OCC45CCCN4CCC5)nc3c2F)c1` [P-0595, 3-(4-((1R,5S)-3,8-diazabicyclo[3.2.1]octan-3-yl)-6,8-difluoro-2-((tetrahydro-1H-pyrrolizin-7a(5H)-yl)methoxy)quinazolin-7-yl)-4-chloroaniline] and `Fc1c(-c2csc3cccc(Cl)c23)ccc2c(N3C[C@H]4CC[C@@H](C3)N4)nc(OCC34CCCN3CCC4)nc12` [P-0534] fall in the same range of IC50: 0.0001 to 10 µM for the first, 0.0001 to 10 µM for the second.

`Cc1c(-c2cc(O)cc3ccccc23)ccc2c(N3C[C@H]4CC[C@@H](C3)N4)nc(OC[C@@H]3CCCN3C)nc12` [P-0014, 4-(4-((1R,5S)-3,8-diazabicyclo[3.2.1]octan-3-yl)-8-methyl-2-(((S)-1-methylpyrrolidin-2-yl)methoxy)quinazolin-7-yl)naphthalen-2-ol] and `CN1CCC[C@H]1COc1nc(N2C[C@H]3CC[C@@H](C2)N3)c2cc(Cl)c(-c3cc(O)cc4ccccc34)nc2n1` [P-0045, 4-(4-((1R,5S)-3,8-diazabicyclo[3.2.1]octan-3-yl)-6-chloro-2-(((S)-1-methylpyrrolidin-2-yl)methoxy)pyrido[2,3-d]pyrimidin-7-yl)naphthalen-2-ol] fall in the same range of IC50: 0.0001 to 10 µM for the first, 0.0001 to 10 µM for the second.

`Oc1cc(-c2ccc3c(N4C[C@H]5CC[C@@H](C4)N5)nc(N4CC(N5CCC(O)C5)C4)nc3c2F)c2ccccc2c1` (stereo partly drawn) [P-0602, 1-(1-(4-((1R,5S)-3,8-diazabicyclo[3.2.1]octan-3-yl)-8-fluoro-7-(3-hydroxynaphthalen-1-yl)quinazolin-2-yl)azetidin-3-yl)pyrrolidin-3-ol] and `Oc1cc(-c2ccc3c(N4C[C@H]5CC[C@@H](C4)N5)nc(N4CC5(CCC(O)C5)C4)nc3c2F)c2ccccc2c1` (stereo partly drawn) [P-0563, 2-(4-((1R,5S)-3,8-diazabicyclo[3.2.1]octan-3-yl)-8-fluoro-7-(3-hydroxynaphthalen-1-yl)quinazolin-2-yl)-2-azaspiro[3.4]octan-6-ol] fall in the same range of IC50: 0.0001 to 10 µM for the first, 0.0001 to 10 µM for the second.

`OCC1(COc2nc(N3C[C@H]4CC[C@@H](C3)N4)c3ccc(-c4cc(O)cc5ccccc45)c(F)c3n2)CC2(CCC2)C1` [P-0569, 4-(4-((1R,5S)-3,8-diazabicyclo[3.2.1]octan-3-yl)-8-fluoro-2-((2-(hydroxymethyl)spiro[3.3]heptan-2-yl)methoxy)quinazolin-7-yl)naphthalen-2-ol] and `Oc1cc(-c2ccc3c(N4C[C@H]5CC[C@@H](C4)N5)nc(N4CCC5(CCNC5)C4)nc3c2F)c2ccccc2c1` (stereo partly drawn) [P-0526, 4-(4-((1R,5S)-3,8-diazabicyclo[3.2.1]octan-3-yl)-8-fluoro-2-(2,7-diazaspiro[4.4]nonan-2-yl)quinazolin-7-yl)naphthalen-2-ol] fall in the same range of IC50: 0.0001 to 10 µM for the first, 0.0001 to 10 µM for the second.

`CN1CCC[C@H]1COc1nc(N2C[C@H]3C[C@@H]2CN3)c2cc(Cl)c(-c3cc(O)cc4ccccc34)c(F)c2n1` [P-0041, 4-(4-((1R,4R)-2,5-diazabicyclo[2.2.1]heptan-2-yl)-6-chloro-8-fluoro-2-(((S)-1-methylpyrrolidin-2-yl)methoxy)quinazolin-7-yl)naphthalen-2-ol] and `CN1CCC[C@H]1COc1nc(N2C[C@H]3C[C@@H]2CN3)c2ccc(-c3cc(O)cc4ccccc34)cc2n1` [P-0051, 4-(4-((1R,4R)-2,5-diazabicyclo[2.2.1]heptan-2-yl)-2-(((S)-1-methylpyrrolidin-2-yl)methoxy)quinazolin-7-yl)naphthalen-2-ol] fall in the same range of IC50: 0.0001 to 10 µM for the first, 0.0001 to 10 µM for the second.

`Fc1c(-c2cccc3cccc(Br)c23)ccc2c(N3C[C@H]4CC[C@@H](C3)N4)nc(OCC34CCCN3CCC4)nc12` [P-0571, 4-((1R,5S)-3,8-diazabicyclo[3.2.1]octan-3-yl)-7-(8-bromonaphthalen-1-yl)-8-fluoro-2-((tetrahydro-1H-pyrrolizin-7a(5H)-yl)methoxy)quinazoline] and `CCc1cccc2c1N(c1ccc3c(N4C[C@H]5CC[C@@H](C4)N5)nc(OCC45CCCN4CCC5)nc3c1F)CCC2` [P-0559, 4-((1R,5S)-3,8-diazabicyclo[3.2.1]octan-3-yl)-7-(8-ethyl-3,4-dihydroquinolin-1(2H)-yl)-8-fluoro-2-((tetrahydro-1H-pyrrolizin-7a(5H)-yl)methoxy)quinazoline] fall in the same range of IC50: 0.0001 to 10 µM for the first, 0.0001 to 10 µM for the second.

First: Oc1cc(-c2ccc3c(N4C[C@H]5CC[C@@H](C4)N5)nc(N4CCC5(CCOCC5)C4)nc3c2F)c2ccccc2c1 [P-0527, 4-(4-((1R,5S)-3,8-diazabicyclo[3.2.1]octan-3-yl)-8-fluoro-2-(8-oxa-2-azaspiro[4.5]decan-2-yl)quinazolin-7-yl)naphthalen-2-ol]
Second: CN(CC(C)(C)CO)c1nc(N2C[C@H]3CC[C@@H](C2)N3)c2ccc(-c3cc(O)cc4ccccc34)c(F)c2n1 [P-0568, 4-(4-((1R,5S)-3,8-diazabicyclo[3.2.1]octan-3-yl)-8-fluoro-2-((3-hydroxy-2,2-dimethylpropyl)(methyl)amino)quinaz-olin-7-yl)naphthalen-2-ol]
The IC50 of the first is lower: 0.0001 to 10 µM for the first, 10 to 100 µM for the second.

`CN1CCOC[C@H]1COc1nc(N2C[C@H]3CC[C@@H](C2)N3)c2ccc(-c3cc(O)cc4ccccc34)cc2n1` [P-0084, 4-(4-((1R,5S)-3,8-diazabicyclo[3.2.1]octan-3-yl)-2-(((S)-4-methylmorpholin-3-yl)methoxy)quinazolin-7-yl)naphthalen-2-ol] and `CN1CCC[C@H]1COc1nc(N2C[C@@H]3CC[C@H]2CN3)c2ccc(-c3cc(O)cc4ccccc34)cc2n1` [P-0011, 4-(4-((1S,4S)-2,5-diazabicyclo[2.2.2]octan-2-yl)-2-(((S)-1-methylpyrrolidin-2-yl)methoxy)quinazolin-7-yl)naphthalen-2-ol] fall in the same range of IC50: 0.0001 to 10 µM for the first, 0.0001 to 10 µM for the second.

`CN1CCC[C@H]1COc1nc(N2C[C@@H]3C[C@H]2CN3)c2ccc(-c3cc(O)cc4ccccc34)cc2n1` [P-0052, 4-(4-((1S,4S)-2,5-diazabicyclo[2.2.1]heptan-2-yl)-2-(((S)-1-methylpyrrolidin-2-yl)methoxy)quinazolin-7-yl)naphthalen-2-ol] and `Oc1cc(-c2ccc3c(N4C[C@H]5CC[C@@H](C4)N5Cc4ccccc4)nc(OCC45CCCN4CCC5)nc3c2)c2ccccc2c1` [P-0018, 4-(4-((1R,5S)-8-benzyl-3,8-diazabicyclo[3.2.1]octan-3-yl)-2-((tetrahydro-1H-pyrrolizin-7a(5H)-yl)methoxy)quinazolin-7-yl)naphthalen-2-ol] fall in the same range of IC50: 0.0001 to 10 µM for the first, 0.0001 to 10 µM for the second.
